ChEMBL document CHEMBL1150399, “Evaluation of novel hyphodermin derivatives as glycogen phosphorylase a inhibitors” (Bioorg Med Chem, 2008)
Activity calls are given as the source filed them. No cut-off for these calls is given here.

Assays:
[1] = molecular target: T1, Glycogen phosphorylase, muscle form (Oryctolagus cuniculus) (UniProt P00489); test: Inhibition of rabbit glycogen phosphorylase assessed as release of phosphate from glucose 1 phosphate at 22 mM
T1 sequence (whole entry): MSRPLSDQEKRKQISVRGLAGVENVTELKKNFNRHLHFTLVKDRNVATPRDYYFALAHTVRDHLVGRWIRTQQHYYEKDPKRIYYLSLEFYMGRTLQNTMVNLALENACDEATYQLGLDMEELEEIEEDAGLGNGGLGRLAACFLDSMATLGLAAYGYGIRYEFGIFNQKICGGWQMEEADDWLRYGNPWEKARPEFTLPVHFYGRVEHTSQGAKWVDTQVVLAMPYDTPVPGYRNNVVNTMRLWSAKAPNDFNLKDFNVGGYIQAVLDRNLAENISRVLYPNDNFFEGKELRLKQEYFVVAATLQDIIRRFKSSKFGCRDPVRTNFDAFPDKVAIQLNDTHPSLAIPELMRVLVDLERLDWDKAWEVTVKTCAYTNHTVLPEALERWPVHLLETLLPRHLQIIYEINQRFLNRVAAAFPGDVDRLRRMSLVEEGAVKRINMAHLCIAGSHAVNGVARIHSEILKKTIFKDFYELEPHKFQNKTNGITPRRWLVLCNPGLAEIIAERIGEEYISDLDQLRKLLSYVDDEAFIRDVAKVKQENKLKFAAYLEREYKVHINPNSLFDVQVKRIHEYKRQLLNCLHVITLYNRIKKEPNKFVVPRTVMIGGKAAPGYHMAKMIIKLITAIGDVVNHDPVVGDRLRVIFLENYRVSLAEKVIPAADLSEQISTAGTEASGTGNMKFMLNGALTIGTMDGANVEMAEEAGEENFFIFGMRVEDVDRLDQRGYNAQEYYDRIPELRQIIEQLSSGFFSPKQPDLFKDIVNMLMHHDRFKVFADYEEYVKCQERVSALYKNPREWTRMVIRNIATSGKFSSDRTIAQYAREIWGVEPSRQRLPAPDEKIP

[2] = molecular target: T2, Glycogen phosphorylase, muscle form (Oryctolagus cuniculus, UniProt P00489); test: Inhibition of rabbit muscle glycogen phosphorylase assessed as release of phosphate from glucose 1 phosphate
T2 sequence (P00489 whole entry): T1 sequence (whole entry)

[3] = molecular target: T1, Glycogen phosphorylase, muscle form (Oryctolagus cuniculus); test: Inhibition of rabbit muscle glycogen phosphorylase assessed as release of phosphate from glucose 1 phosphate at 0.222 to 22 mM
[4] = molecular target: T1, Glycogen phosphorylase, muscle form (Oryctolagus cuniculus); test: Inhibition of rabbit glycogen phosphorylase assessed as release of phosphate from glucose 1 phosphate at <=1.4 to 3 mM
[5] = molecular target: T1, Glycogen phosphorylase, muscle form (Oryctolagus cuniculus); test: Inhibition of rabbit glycogen phosphorylase assessed as release of phosphate from glucose 1 phosphate at 3 mM

SMILES	Activity [3]	other results
O=C(O)c1ccc2c3c1C(=O)N(c1ccccc1)C3=CCC2	–	inhibition [1]: 46%; IC50 [2]: 800 µM
COC(=O)c1ccc2c(c1C(=O)OC)C(=O)C(Br)CC2(C)C (stereo not drawn)	inactive	–
CO[C@@H]1OC(=O)c2ccc3c(c21)C(=O)[C@@H]1O[C@@H]1C3(C)C (racemic)	inactive	Activity [4]: inactive
CCN(CC)C(=O)c1c(C(=O)O)ccc2c1C(=O)CCC2	inactive	–
O=C(O)c1ccc2c3c1C(=O)N(Cc1ccccc1)C3(O)CCC2 (stereo not drawn)	–	inhibition [1]: 65%; IC50 [2]: 1200 µM
O=C(O)c1ccc2c3c1C(=O)N(Cc1ccccc1)C3=CCC2	–	inhibition [1]: 46%; IC50 [2]: 1100 µM
O=C1OC(=O)c2c1ccc1c2C(=O)CCC1	inactive	–
COC(=O)c1ccc2c(c1C(=O)OC)C(=O)CCC2	inactive	–
COC1OC(=O)c2ccc3c(c21)C(=O)C=CC3(C)C (stereo not drawn)	–	inhibition [5]: 15%
O=C(O)c1ccc2c(c1C(=O)N1CCOCC1)C(=O)CCC2	inactive	–
O=C(O)c1ccc2c(c1C(=O)NCc1ccccc1)C(=O)CCC2	–	inhibition [1]: 89%; IC50 [2]: 11700 µM
CC1(C)CCC(=O)c2c1ccc1c2C(O)OC1=O (stereo not drawn)	inactive	Activity [4]: inactive
CC1(C)C=CC(=O)c2c1ccc(C(=O)O)c2C(=O)O	inactive	–
COC(=O)c1ccc2c(c1C(=O)OC)C(=O)[C@@H]1O[C@@H]1C2(C)C (racemic)	inactive	–
COC(=O)c1ccc2c(c1C(=O)OC)C(=O)CCC2(C)C	inactive	–
CCCCCSC(=O)c1c(C(=O)O)ccc2c1C(=O)CCC2	–	inhibition [1]: 55%; IC50 [2]: 1300 µM
COC(=O)c1ccc2c(c1C(=O)OC)C(=O)C=CC2(C)C	inactive	–
CC1(C)C=CC(=O)c2c1ccc1c2C(O)OC1=O (stereo not drawn)	inactive	–
CC1(C)c2ccc3c(c2C(=O)[C@@H]2O[C@@H]21)[C@H](O)OC3=O (racemic)	inactive	Activity [4]: inactive

Second part, led by results:

Activity [3]	SMILES	other results
inactive	COC(=O)c1c(C(=O)O)ccc2c1C(=O)CCC2	–
inactive	CC(C)OC(=O)c1c(C(=O)O)ccc2c1C(=O)CCC2	–
inactive	O=C(O)c1ccc2c(c1C(=O)O)C(=O)CCC2	–
inactive	CC1(C)CCC(=O)c2c1ccc(C(=O)O)c2C(=O)O	–
inactive	O=C(O)c1ccc2c3c1C(=O)N(c1ccccc1)C3(O)CCC2 (stereo not drawn)	–
inactive	O=C(O)c1ccc2c(c1C(=O)Nc1ccccc1)C(=O)CCC2	–
